The assay has as its system mice liver cancer H22 cells. In words: Tumor suppression by FpAT and derivative peptides in liver cancer H22 tumor-bearing mouse model (Example 14). In kind it is in vivo, mice of Kunming strain. As to conditions: peptides 50 μg/100 μl PBS/injection, angulus oculi medialis vein daily, 7 times; CTX 80 mg/KG; tumors weighed. How it is done: Ninety 5-week old mice of Kunming strain purchased from Animal Center Of Chinese Academy Of Medical Sciences were inoculated subcutaneously in forelimb with mice liver cancer H22 cells (National Institute for the Control of Pharmaceutical and Biological Products) (5×10^6/100 μl/mouse). On the next day after inoculation, each kind of inoculated cells were divided randomly into […] with 10 mice per group. FpAT (50 μg/100 μl PBS/injection) and 7 kinds of derivative peptides thereof (see Table 5 below for detailed sequence):FpAT-N3d, FpAT-N6d, FpAT-N9d, FpAT-C3d, FpAT-C6d, FpAT-C9d, FpAT-N5d-C4d, and vehicle control (PBS:100 μl/injection) were injected in angulus oculi medialis vein, with CTX (cyclophosphamide) (80 mg/KG) as positive control daily, 7 times in total. The mice were sacrificed by dislocating the neck on the next day after administration was stopped, and the tumors were taken and weighed for a statistical analysis.
The molecule `O=P1(N(CCCl)CCCl)NCCCO1` (centres unmarked) [CTX, cyclophosphamide, reference compound] came in with a tumor suppressing rate of 89.9%.
Next, “H2N-Glu-Gly-Gly-Gly-Val-Arg-COOH (H-EGGGVR-OH; listed as Homo sapiens) [FpAT-N9d]”: 34.5%; “H2N-Asp-Ser-Gly-Glu-Gly-Asp-Phe-Leu-Ala-COOH (H-DSGEGDFLA-OH; listed as Homo sapiens) [FpAT-C6d]”: 32.3%.
Under “H2N-Phe-Leu-Ala-Glu-Gly-Gly-Gly-Val-Arg-COOH (H-FLAEGGGVR-OH; listed as Homo sapiens) [FpAT-N6d]” stands 57.6%; under “H2N-Asp-Phe-Leu-Ala-Glu-Gly-COOH (H-DFLAEG-OH; listed as Homo sapiens) [FpAT-N5d-C4d]”, 56.4%.
Under “H2N-Glu-Gly-Asp-Phe-Leu-Ala-Glu-Gly-Gly-Gly-Val-Arg-COOH (H-EGDFLAEGGGVR-OH; listed as Homo sapiens) [FpAT-N3d]” stands 63.3%.
For “H2N-Asp-Ser-Gly-Glu-Gly-Asp-Phe-Leu-Ala-Glu-Gly-Gly-COOH (H-DSGEGDFLAEGG-OH; listed as Homo sapiens) [FpAT-C3d]”, the tumor suppressing rate worked out at 46.7%.
Molecule “H2N-Asp-Ser-Gly-Glu-Gly-Asp-COOH (H-DSGEGD-OH; listed as Homo sapiens) [FpAT-C9d]” had a tumor suppressing rate of 34.5%.
